# Reference: PubChem BioAssay (NCI)
#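 Interpolation was linear, between the two tested concentrations surrounding the appropriate level; five concentrations were tested over 48 hours in 96-well plates. Here, GI50 denotes the concentration required for 50% inhibition of growth. At the TGI there is no net growth.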
# Tests used:
# Assay in all cases: DTP human tumour cell line panel, 48 h
# SW-620 colon = system: SW-620 colon
# EKVX NSCLC = system: EKVX NSCLC
# MDA-MB-435 = system: MDA-MB-435
# NCI-H23 lung = system: NCI-H23 lung
# SK-MEL-5 melanoma = system: SK-MEL-5 melanoma
# CAKI-1 renal = system: CAKI-1 renal
# SF-539 CNS = system: SF-539 CNS
# MOLT-4 leukemia = system: MOLT-4 leukemia
# SK-MEL-2 melanoma = system: SK-MEL-2 melanoma
# SNB-75 CNS = system: SNB-75 CNS
# SR leukemia = system: SR leukemia
# MCF7 breast = system: MCF7 breast
# TK-10 renal = system: TK-10 renal
# OVCAR-8 ovarian = system: OVCAR-8 ovarian
# PC-3 prostate = system: PC-3 prostate
# NCI/ADR-RES ovarian = system: NCI/ADR-RES ovarian
# SN12C renal = system: SN12C renal
# M14 melanoma = system: M14 melanoma
# HOP-92 NSCLC = system: HOP-92 NSCLC
# T-47D breast = system: T-47D breast
# U251 CNS = system: U251 CNS
# NCI-H226 lung = system: NCI-H226 lung
# COLO 205 colon = system: COLO 205 colon
# SK-OV-3 ovarian = system: SK-OV-3 ovarian
# HS 578T breast = system: HS 578T breast
# HCC-2998 colon = system: HCC-2998 colon
# HCT-116 colon = system: HCT-116 colon
# MDA-MB-231 breast = system: MDA-MB-231 breast
# KM12 colon = system: KM12 colon
# A549 NSCLC = system: A549 NSCLC
# HL-60(TB) leukemia = system: HL-60(TB) leukemia
# RPMI-8226 leukemia = system: RPMI-8226 leukemia
# SNB-19 CNS = system: SNB-19 CNS
# MALME-3M melanoma = system: MALME-3M melanoma
# HCT-15 colon = system: HCT-15 colon
# 786-0 renal = system: 786-0 renal
# HT29 colon = system: HT29 colon
# IGROV1 ovarian = system: IGROV1 ovarian
# OVCAR-5 ovarian = system: OVCAR-5 ovarian
# SK-MEL-28 melanoma = system: SK-MEL-28 melanoma
# HOP-62 NSCLC = system: HOP-62 NSCLC
# BT-549 breast = system: BT-549 breast
# SF-295 CNS = system: SF-295 CNS
# K-562 leukemia = system: K-562 leukemia
# UACC-62 melanoma = system: UACC-62 melanoma
# ACHN renal = system: ACHN renal
# UO-31 renal = system: UO-31 renal
# NCI-H460 lung = system: NCI-H460 lung
# NCI-H522 lung = system: NCI-H522 lung
# RXF 393 renal = system: RXF 393 renal
# CCRF-CEM leukemia = system: CCRF-CEM leukemia
# A498 renal = system: A498 renal
# UACC-257 melanoma = system: UACC-257 melanoma
# OVCAR-4 ovarian = system: OVCAR-4 ovarian
# LOX IMVI melanoma = system: LOX IMVI melanoma
# SF-268 CNS = system: SF-268 CNS
# DU-145 prostate = system: DU-145 prostate
structure (smiles),measurement,setting,value
Oc1ccc(CSc2nnc(-c3ccncc3)n2-c2ccccc2)c2cccnc12,GI50,SW-620 colon,542 nM
same,TGI,SW-620 colon,> 100000 nM
same,GI50,EKVX NSCLC,1400 nM
same,TGI,EKVX NSCLC,21100 nM
same,GI50,MDA-MB-435,462 nM
same,TGI,MDA-MB-435,> 100000 nM
same,GI50,NCI-H23 lung,433 nM
same,TGI,NCI-H23 lung,> 46500 nM
same,GI50,SK-MEL-5 melanoma,761 nM
same,TGI,SK-MEL-5 melanoma,5600 nM
same,GI50,CAKI-1 renal,1610 nM
same,TGI,CAKI-1 renal,> 100000 nM
same,GI50,SF-539 CNS,769 nM
same,TGI,SF-539 CNS,31300 nM
same,GI50,MOLT-4 leukemia,720 nM
same,TGI,MOLT-4 leukemia,> 100000 nM
same,GI50,SK-MEL-2 melanoma,628 nM
same,TGI,SK-MEL-2 melanoma,> 100000 nM
same,GI50,SNB-75 CNS,642 nM
same,TGI,SNB-75 CNS,43000 nM
same,GI50,SR leukemia,396 nM
same,TGI,SR leukemia,> 100000 nM
same,GI50,MCF7 breast,357 nM
same,TGI,MCF7 breast,> 100000 nM
same,GI50,TK-10 renal,3250 nM
same,TGI,TK-10 renal,> 100000 nM
same,GI50,OVCAR-8 ovarian,493 nM
same,TGI,OVCAR-8 ovarian,> 100000 nM
same,GI50,PC-3 prostate,735 nM
same,TGI,PC-3 prostate,> 100000 nM
same,GI50,NCI/ADR-RES ovarian,309 nM
same,TGI,NCI/ADR-RES ovarian,> 26400 nM
same,GI50,SN12C renal,385 nM
same,TGI,SN12C renal,> 100000 nM
same,GI50,M14 melanoma,765 nM
same,TGI,M14 melanoma,5960 nM
same,GI50,HOP-92 NSCLC,192 nM
same,TGI,HOP-92 NSCLC,628 nM
same,GI50,T-47D breast,1440 nM
same,TGI,T-47D breast,> 45400 nM
same,GI50,U251 CNS,422 nM
same,TGI,U251 CNS,63600 nM
same,GI50,NCI-H226 lung,3490 nM
same,TGI,NCI-H226 lung,> 100000 nM
same,GI50,COLO 205 colon,19200 nM
same,TGI,COLO 205 colon,> 80400 nM
same,GI50,SK-OV-3 ovarian,2320 nM
same,TGI,SK-OV-3 ovarian,> 29400 nM
same,GI50,HS 578T breast,473 nM
same,TGI,HS 578T breast,> 84800 nM
same,GI50,HCC-2998 colon,3140 nM
same,TGI,HCC-2998 colon,> 100000 nM
same,GI50,HCT-116 colon,376 nM
same,TGI,HCT-116 colon,> 100000 nM
same,GI50,MDA-MB-231 breast,1260 nM
same,TGI,MDA-MB-231 breast,> 55600 nM
same,GI50,KM12 colon,2270 nM
same,TGI,KM12 colon,> 100000 nM
same,GI50,A549 NSCLC,1750 nM
same,TGI,A549 NSCLC,> 100000 nM
same,GI50,HL-60(TB) leukemia,677 nM
same,TGI,HL-60(TB) leukemia,5320 nM
same,GI50,RPMI-8226 leukemia,391 nM
same,TGI,RPMI-8226 leukemia,> 100000 nM
same,GI50,SNB-19 CNS,453 nM
same,TGI,SNB-19 CNS,> 89200 nM
same,GI50,MALME-3M melanoma,1050 nM
same,TGI,MALME-3M melanoma,> 81500 nM
same,GI50,HCT-15 colon,363 nM
same,TGI,HCT-15 colon,> 100000 nM
same,GI50,786-0 renal,3400 nM
same,TGI,786-0 renal,20000 nM
same,GI50,HT29 colon,3870 nM
same,TGI,HT29 colon,> 100000 nM
same,GI50,IGROV1 ovarian,1040 nM
same,TGI,IGROV1 ovarian,> 57000 nM
same,GI50,OVCAR-5 ovarian,3690 nM
same,TGI,OVCAR-5 ovarian,> 100000 nM
same,GI50,SK-MEL-28 melanoma,1790 nM
same,TGI,SK-MEL-28 melanoma,> 100000 nM
same,GI50,HOP-62 NSCLC,773 nM
same,TGI,HOP-62 NSCLC,16300 nM
same,GI50,BT-549 breast,596 nM
same,TGI,BT-549 breast,> 63100 nM
same,GI50,SF-295 CNS,1140 nM
same,TGI,SF-295 CNS,> 38500 nM
same,GI50,K-562 leukemia,363 nM
same,TGI,K-562 leukemia,> 100000 nM
same,GI50,UACC-62 melanoma,1750 nM
same,TGI,UACC-62 melanoma,7520 nM
same,GI50,ACHN renal,794 nM
same,TGI,ACHN renal,> 28400 nM
same,GI50,UO-31 renal,451 nM
same,TGI,UO-31 renal,12800 nM
same,GI50,NCI-H460 lung,375 nM
same,TGI,NCI-H460 lung,14400 nM
same,GI50,NCI-H522 lung,369 nM
same,TGI,NCI-H522 lung,> 100000 nM
same,GI50,RXF 393 renal,2830 nM
same,TGI,RXF 393 renal,70500 nM
same,GI50,CCRF-CEM leukemia,513 nM
same,TGI,CCRF-CEM leukemia,> 100000 nM
same,GI50,A498 renal,2600 nM
same,TGI,A498 renal,8640 nM
same,GI50,UACC-257 melanoma,2400 nM
same,TGI,UACC-257 melanoma,> 31300 nM
same,GI50,OVCAR-4 ovarian,3180 nM
same,TGI,OVCAR-4 ovarian,> 100000 nM
same,GI50,LOX IMVI melanoma,471 nM
same,TGI,LOX IMVI melanoma,> 27900 nM
same,GI50,SF-268 CNS,804 nM
same,TGI,SF-268 CNS,> 100000 nM
same,GI50,DU-145 prostate,686 nM
same,TGI,DU-145 prostate,> 100000 nM
IP(CCCCCCCCCCSc1n(Cc2ccc3ccccc3c2)c(-c2ccccc2)c(-c2ccccc2)[n+]1Cc1ccc2ccccc2c1)(c1ccccc1)(c1ccccc1)c1ccccc1,GI50,SW-620 colon,794 nM
same,TGI,SW-620 colon,2160 nM
same,GI50,MDA-MB-435,403 nM
same,TGI,MDA-MB-435,1590 nM
same,GI50,NCI-H23 lung,322 nM
same,TGI,NCI-H23 lung,1320 nM
same,GI50,SK-MEL-5 melanoma,1100 nM
same,TGI,SK-MEL-5 melanoma,2310 nM
same,GI50,SF-539 CNS,771 nM
same,TGI,SF-539 CNS,2150 nM
same,GI50,MOLT-4 leukemia,541 nM
same,TGI,MOLT-4 leukemia,2310 nM
same,GI50,SNB-75 CNS,389 nM
same,TGI,SNB-75 CNS,1890 nM
same,GI50,SR leukemia,347 nM
same,TGI,SR leukemia,1720 nM
same,GI50,PC-3 prostate,415 nM
same,TGI,PC-3 prostate,1730 nM
same,GI50,NCI/ADR-RES ovarian,3940 nM
same,TGI,NCI/ADR-RES ovarian,23600 nM
same,GI50,SN12C renal,399 nM
same,TGI,SN12C renal,1540 nM
same,GI50,HOP-92 NSCLC,240 nM
same,TGI,HOP-92 NSCLC,932 nM
same,GI50,SK-OV-3 ovarian,714 nM
same,TGI,SK-OV-3 ovarian,2170 nM
same,GI50,HS 578T breast,670 nM
same,TGI,HS 578T breast,3960 nM
same,GI50,HCC-2998 colon,531 nM
same,TGI,HCC-2998 colon,1920 nM
same,GI50,MDA-MB-231 breast,318 nM
same,TGI,MDA-MB-231 breast,1260 nM
same,GI50,HL-60(TB) leukemia,189 nM
same,TGI,HL-60(TB) leukemia,438 nM
same,GI50,RPMI-8226 leukemia,337 nM
same,TGI,RPMI-8226 leukemia,1500 nM
same,GI50,HCT-15 colon,1790 nM
same,TGI,HCT-15 colon,3420 nM
same,GI50,OVCAR-5 ovarian,1500 nM
same,TGI,OVCAR-5 ovarian,3000 nM
same,GI50,SK-MEL-28 melanoma,764 nM
same,TGI,SK-MEL-28 melanoma,2140 nM
same,GI50,SF-295 CNS,1570 nM
same,TGI,SF-295 CNS,3100 nM
same,GI50,K-562 leukemia,411 nM
same,TGI,K-562 leukemia,1840 nM
same,GI50,UACC-62 melanoma,562 nM
same,TGI,UACC-62 melanoma,2020 nM
same,GI50,ACHN renal,1820 nM
same,TGI,ACHN renal,3640 nM
same,GI50,UO-31 renal,1820 nM
same,TGI,UO-31 renal,4890 nM
same,GI50,CCRF-CEM leukemia,489 nM
same,TGI,CCRF-CEM leukemia,1950 nM
same,GI50,A498 renal,1350 nM
same,TGI,A498 renal,3020 nM
same,GI50,UACC-257 melanoma,412 nM
same,TGI,UACC-257 melanoma,1700 nM
same,GI50,LOX IMVI melanoma,553 nM
same,TGI,LOX IMVI melanoma,1820 nM
same,GI50,DU-145 prostate,748 nM
same,TGI,DU-145 prostate,2190 nM
